Laboratory results published in US12650422B2, “Utility of protein in the prediction of in vivo effects” (Qualyst Transporter Solutions, LLC, priority 2014, dated 2026).
Where two headings read alike, the source gives them in different places.

Legend:
Rat Hepatocytes = assay: Hepatic intracellular concentration (ICC) in rat hepatocytes, observed vs predicted; assay type: in vitro ADME; conditions: for Observed ICC (uM) BSA: one-step method with BSA
Excerpt: The hepatic intracellular concentration (ICC) of a compound, which reflects the balance of the uptake, metabolism, and efflux out of the cell, can also be determined in the absence and presence of protein.

[1] = tested on: sandwich-cultured rat hepatocytes; assay: Intrinsic biliary clearance in sandwich-cultured rat hepatocytes; conditions: for Observed Cl (ml/min/Kg) BSA: measured in the presence of BSA
Excerpt: Representative calculations that can be employed in accordance with the presently disclosed subject matter include the calculations of a biliary excretion index and a biliary clearance value. […] In some embodiments, the BEI is a calculation of the uptake and excretion of the candidate compound as follows: 100%×{(uptake in the culture with intact bile canaliculi minus uptake within hepatocytes only in the Ca^2+-free culture) divided by (uptake in the culture with intact bile canaliculi)}. In some embodiments, the biliary clearance calculation is performed as follows: (uptake in the culture with intact bile canaliculi minus uptake within hepatocytes only in the Ca^2+-free culture) divided by (time of incubation multiplied by the concentration of the candidate compound in the buffer medium). In some embodiments, a biliary clearance value can be calculated as the ratio of the mass in the bile canaliculi and the area under the curve (AUC) in culture medium, wherein the AUC represents the integral of candidate compound in the medium from time 0 to time T (time can be measure in any desired units, and is usually measured in minutes). Indeed, the term AUC can refer to the following equation: […]
The data for each compound was determined in sandwich-cultured rat hepatocytes at a concentration of 1 μM and an exposure time of 10 minutes in buffer (no protein), in buffer with 4% BSA, or in rat serum.
This latter method is the current industry standard.

4% BSA = 4% BSA (Bos taurus, UniProt P02769); assay: Free fraction by equilibrium dialysis in 4% BSA; assay type: in vitro ADME; conditions: bovine, DPDPE line: 1 uM
Excerpt: (§5) The free fraction is the amount of compound that is considered thermodynamically free in solution compared to the amount which is considered to be thermodynamically bound to the albumin proteins.

[2] = Free fraction by equilibrium dialysis in serum; assay type: in vitro ADME; conditions: DPDPE line: 1 uM; for fraction unbound: serum
Excerpt: as §5

CYP2C9 = CYP2C9 (Homo sapiens, UniProt P11712)
Experimental: (§1) Sandwich-Cultured Hepatocytes (SCH) were prepared using freshly isolated hepatocytes or cryopreserved hepatocytes. Freshly isolated hepatocytes were plated on 24-well cell culture plates, rinsed and fed with the appropriate species specific Qualyst Transporter Solutions (QTS, Durham, North Carolina, United States of America) propriety culture medium (QualGro™). Cells were maintained in the appropriate species specific medium until consumed in studies.
(§2) Cryopreserved hepatocytes were thawed following manufacturer's thawing instructions. Cryopreserved hepatocytes were subsequently suspended in QTS propriety hepatocyte seeding medium (QualGro™ Seeding Medium) at a density of 0.7-0.8 million viable cells/mL onto BioCoat® 24-well cell culture plates. Following plating, cells were allowed to attach for 2-4 hours, rinsed and fed with warm (37° C.) seeding medium. Eighteen to 24 hours later, cells were fed and overlaid with the appropriate species specific QTS propriety culture medium (QualGro™) supplemented with extracellular matrix (ECM), Matrigel® (0.25 mg/mL). Cells were maintained in QualGro™ Hepatocyte Culture Medium until consumed in studies.
(§3) Cells were cultured as described above through day 6 of culture. On day 7 of culture, spent culture medium was aspirated and replaced with HBSS incubation solution with or without 4% bovine serum albumin (BSA). […] In situ incubations were performed in cell culture incubators (37° C.; 5% CO2; 100% humidity) shaking at 120 rpm for 20-30 minutes. Following the incubation period, incubation solutions were collected and stored at −80° C. until processed for bioanalysis.
(§4) In situ incubations were analyzed for the detection of P450 mediated metabolite formation of hydroxymidazolam from midazolam and hydroxyibuprofen from ibuprofen. Briefly, a volume of 300 μL of internal standard solution (methanol containing 25 nM triazolam and d3-ibuprofen) and a volume of 100 μL of HBSS or HBSS plus 4% BSA were added to a protein precipitation plate (Millipore MDRPNP4; EDM Millipore, Billerica, Massachusetts, United States of America) stacked on a 96 deep well block. The plate was allowed to shake for 1 to 2 minutes prior to centrifugation for collection of the filtered supernatant. The sample filtrate was evaporated to dryness and the samples were reconstituted in 200 μL sample diluent, 40/60 methanol/10 mM ammonium acetate and mixed for at least 20 min on a plate shaker. The reconstituted samples were transferred to a Millipore 0.45 μm filter plate (Millipore MSHVN45) and filtered into a Costar 3957 plate by centrifugation and sealed with a silicone capmat prior to LC-MS/MS analysis.

CYP3A4 = tested on: CYP3A4
Experimental: as §1, §2, §3, §4

[3] = cited from earlier work
human hepatocytes = assay: Intracellular concentration in human hepatocytes in the presence of albumin protein; assay type: in vitro ADME
Excerpt: The observed effects of protein on the intracellular concentration, could lead to an over- or under-prediction of a compound's effect, drastically changing the expected clinical outcome. […] However, the intracellular concentrations never achieved high enough levels to result in hepatotoxic effects. […] Since the effect of protein was unanticipated and not predictable, it is desirable to expose the cell to protein during the experiment.

[4] = HBSS value adjusted with free fraction, DPDPE 10 uM
[5] = absence of protein (HBSS), adjusted with free fraction of Table 1, 1 μM

Chain of 4% BSA (P02769 25-607): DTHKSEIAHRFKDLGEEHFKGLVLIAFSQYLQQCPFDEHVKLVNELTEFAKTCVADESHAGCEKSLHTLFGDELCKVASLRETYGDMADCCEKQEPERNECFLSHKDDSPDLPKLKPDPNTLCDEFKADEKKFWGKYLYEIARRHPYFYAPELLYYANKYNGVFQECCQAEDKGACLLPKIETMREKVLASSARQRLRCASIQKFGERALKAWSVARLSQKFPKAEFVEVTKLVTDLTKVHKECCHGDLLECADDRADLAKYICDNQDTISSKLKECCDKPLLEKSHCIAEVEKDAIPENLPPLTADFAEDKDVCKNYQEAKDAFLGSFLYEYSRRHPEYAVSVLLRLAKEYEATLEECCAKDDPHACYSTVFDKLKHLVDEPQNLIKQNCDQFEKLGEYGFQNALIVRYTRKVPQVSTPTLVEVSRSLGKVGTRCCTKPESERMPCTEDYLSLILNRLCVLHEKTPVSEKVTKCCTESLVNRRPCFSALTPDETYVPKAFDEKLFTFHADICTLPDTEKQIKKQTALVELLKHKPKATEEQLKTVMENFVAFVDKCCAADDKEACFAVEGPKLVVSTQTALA
Chain of CYP2C9 (P11712 whole entry): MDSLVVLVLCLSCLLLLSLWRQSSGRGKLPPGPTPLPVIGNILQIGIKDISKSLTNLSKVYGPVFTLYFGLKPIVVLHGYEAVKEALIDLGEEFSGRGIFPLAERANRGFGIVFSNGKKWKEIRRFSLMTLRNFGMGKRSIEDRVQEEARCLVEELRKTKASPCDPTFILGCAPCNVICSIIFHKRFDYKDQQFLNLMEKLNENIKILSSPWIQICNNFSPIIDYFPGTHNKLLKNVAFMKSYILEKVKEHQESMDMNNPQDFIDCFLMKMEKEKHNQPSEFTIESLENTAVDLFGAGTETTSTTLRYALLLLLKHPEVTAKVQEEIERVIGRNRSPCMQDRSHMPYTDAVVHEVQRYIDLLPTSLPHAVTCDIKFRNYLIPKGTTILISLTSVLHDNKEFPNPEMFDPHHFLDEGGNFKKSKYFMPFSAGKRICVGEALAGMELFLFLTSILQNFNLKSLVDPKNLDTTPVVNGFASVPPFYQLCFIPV

Predicted ICC (uM) HBSS (Rat Hepatocytes; [5]) [µM]	Observed ICC (uM) BSA (Rat Hepatocytes; 1 μM) [µM]	fraction unbound (4% BSA)	Intrinsic Biliary Clearance, BSA [1] [mL/min/kg]	Intrinsic Biliary Clearance, No Protein ([1]; rat) [mL/min/kg]	Predicted Cl (ml/min/Kg) HBSS ([1]; rat, 10 min, 1 μM) [mL/min/kg]	Intrinsic Biliary Clearance, Serum ([1]; rat)	fraction unbound [2]	SMILES	further results
1.59	1.29	0.852	9.25	10.4	8.85	5.12	–	C[C@H]1O[C@@H](O[C@H]2[C@@H](O)C[C@H](O[C@H]3[C@@H](O)C[C@H](O[C@H]4CC[C@@]5(C)[C@H](CC[C@@H]6[C@@H]5C[C@@H](O)[C@]5(C)[C@@H](C7=CC(=O)OC7)CC[C@]65O)C4)O[C@@H]3C)O[C@@H]2C)C[C@H](O)[C@@H]1O [Digoxin]	Free Fraction in Serum [2]: 0.727
–	–	–	–	–	–	–	–	OC(Cn1cncn1)(Cn1cncn1)c1ccc(F)cc1F [Fluconazole]	CYP2C9 enzyme activity reduced to % of control (CYP2C9): 24.4-45.1 % of control
–	–	–	–	–	–	–	–	CC(=O)N1CCN(c2ccc(OCC3COC(Cn4ccnc4)(c4ccc(Cl)cc4Cl)O3)cc2)CC1 (stereo not drawn) [Ketoconazole]	CYP3A4/5 Mean % Remaining (CYP3A4; 4% BSA, inhibitor 0.0500 μM): 54.6%; CYP3A4/5 Mean % Remaining (CYP3A4; 4% BSA, inhibitor 0.250 μM): 40.8%; CYP3A4/5 Mean % Remaining (CYP3A4; No BSA, inhibitor 0.050 μM): 45.1%; CYP3A4/5 Mean % Remaining (CYP3A4; No BSA, inhibitor 0.250 μM): 24.4%
0.48	0.47	0.428	0.19	0.54	0.23	0.91	0.499	CN(Cc1cnc2nc(N)nc(N)c2n1)c1ccc(C(=O)N[C@@H](CCC(=O)O)C(=O)O)cc1 [Methotrexate]	–
–	–	0.047	140	52	2.44	277.50	0.004	O=C(O)C[C@H](O)C[C@H](O)/C=C/c1c(C2CC2)nc2ccccc2c1-c1ccc(F)cc1 [Pitavastatin]	Predicted biliary clearance compared with observed biliary clearance [1]: under-estimated by a significant amount
–	–	0.734	6.47	7.35	5.39	2.06	0.554	CC[C@H](C)C(=O)O[C@H]1C[C@H](O)C=C2C=C[C@H](C)[C@H](CC[C@@H](O)C[C@@H](O)CC(=O)O)[C@H]21 [Pravastatin]	–
3.09	6.81	0.136	164	53.1	7.22	–	–	CC(C)c1nc(N(C)S(C)(=O)=O)nc(-c2ccc(F)cc2)c1/C=C/[C@@H](O)C[C@@H](O)CC(=O)O [Rosuvastatin]	Predicted biliary clearance compared with observed biliary clearance [1]: under-estimated by a significant amount
0.44	0.22	0.075	3.06	4.73	0.36	1.39	0.004	CCCCC(=O)N(Cc1ccc(-c2ccccc2-c2nnn[nH]2)cc1)[C@H](C(=O)O)C(C)C [Valsartan]	–
–	–	–	–	–	–	–	–	CCCc1nc2c(C)cc(-c3nc4ccccc4n3C)cc2n1Cc1ccc(-c2ccccc2C(=O)O)cc1 [telmisartan]	Toxicity associated with its use (in vivo data) [3]: no known toxicity; Intracellular concentration in presence of protein greater than predicted from protein-free data adjusted by free fraction (human hepatocytes): 100 ×

SMILES	Predicted ICC (uM) HBSS (Rat Hepatocytes; [5]) [µM]	Observed ICC (uM) BSA (Rat Hepatocytes; 1 μM) [µM]	fraction unbound (4% BSA)	Intrinsic Biliary Clearance, BSA [1] [mL/min/kg]	Intrinsic Biliary Clearance, No Protein ([1]; rat) [mL/min/kg]	Predicted Cl (ml/min/Kg) HBSS ([1]; rat, 10 min, 1 μM) [mL/min/kg]	Intrinsic Biliary Clearance, Serum ([1]; rat)	fraction unbound [2]	further results
CC1(C)SSC(C)(C)[C@@H](NC(=O)[C@@H](N)Cc2ccc(O)cc2)C(=O)NCC(=O)N[C@@H](Cc2ccccc2)C(=O)N[C@H]1C(=O)O [DPDPE]	1.42	1.98	–	–	–	–	–	–	Predicted ICC (uM) HBSS (Rat Hepatocytes; [4]): 13.63 µM; Observed ICC (uM) BSA (Rat Hepatocytes; DPDPE 10 uM): 15.51 µM; Predicted Cl (ml/min/Kg) HBSS [1, 4]: 4.24 mL/min/kg; Predicted Cl (ml/min/Kg) HBSS ([1]; measured in absence of protein (HBSS), adjusted with free fraction of Table 1, 1 μM): 5.69 mL/min/kg; Observed Cl (ml/min/Kg) BSA ([1]; 1 μM): 2.51 mL/min/kg; Observed Cl (ml/min/Kg) BSA ([1]; DPDPE 10 uM): 3.32 mL/min/kg; Predicted biliary clearance compared with observed biliary clearance ([1]; two-step prediction vs measurement with BSA, DPDPE at 1 μM): over-estimated
